Assay results published in patent publication US11414416B1, “Compounds and uses thereof” (Foghorn Therapeutics Inc., priority 2019, dated 2022).

Target: Nanoluciferase-BRD9 fusion protein (Homo sapiens (Human), UniProt Q9H8M2)
Experiment: SYO1 BRD9 NanoLuc degradation assay
Assay type: cell-based
Conditions: Table 5B; SYO-1 cells expressing 3×FLAG-NLuc-BRD9, 6 hours; read-out: SYO1 BRD9-NanoLuc degradation IC50
Protocol: Procedure: A stable SYO-1 cell line expressing 3×FLAG-NLuc-BRD9 was generated. On day 0 cells were seeded in 30 μL media into each well of 384-well cell culture plates. The seeding density was 8000 cells/well. […] Subsequently plates were incubated for 6 hours in a standard tissue culture incubator and equilibrated at room temperature for 15 minutes. Nanoluciferase activity was measured by adding 15 μL of freshly prepared Nano-Glo Luciferase Assay Reagent (Promega N1130), shaking the plates for 10 minutes and reading the bioluminescence using an EnVision reader.
DMSO treated cells are employed as High Control (HC) and 1 μM of a known BRD9 degrader standard treated cells are employed as Low Control (LC).

Nanoluciferase-BRD9 fusion protein, sequence (Q9H8M2 whole entry, the tested form may be a part): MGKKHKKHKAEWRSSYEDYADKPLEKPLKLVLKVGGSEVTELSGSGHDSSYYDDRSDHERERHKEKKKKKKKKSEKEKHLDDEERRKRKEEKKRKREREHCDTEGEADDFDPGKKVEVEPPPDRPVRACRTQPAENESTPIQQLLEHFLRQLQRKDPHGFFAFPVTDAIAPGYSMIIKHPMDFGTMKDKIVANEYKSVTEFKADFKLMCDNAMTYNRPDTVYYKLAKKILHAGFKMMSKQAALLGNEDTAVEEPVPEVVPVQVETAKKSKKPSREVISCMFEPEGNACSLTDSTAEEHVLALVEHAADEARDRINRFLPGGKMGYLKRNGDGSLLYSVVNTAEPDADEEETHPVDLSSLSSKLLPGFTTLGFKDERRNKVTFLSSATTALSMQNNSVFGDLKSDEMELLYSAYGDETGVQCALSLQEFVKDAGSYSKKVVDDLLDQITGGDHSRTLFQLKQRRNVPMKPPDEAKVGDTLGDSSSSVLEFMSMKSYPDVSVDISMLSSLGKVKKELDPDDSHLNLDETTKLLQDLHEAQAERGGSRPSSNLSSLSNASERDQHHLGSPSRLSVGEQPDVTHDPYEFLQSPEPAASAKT

SMILES | DC50
COc1cc(-c2cn(C)c(=O)c3cnccc23)cc(OC)c1CN(C)C(=O)CCCCN1CCC2C1CN2c1ccc2c(c1)C(=O)N(C1CCC(=O)NC1=O)C2=O (stereo not shown) [Compound D205] | < 0.01 µM
COc1cc(-c2cn(C)c(=O)c3cnccc23)cc(OC)c1CN(C)C(=O)CCCCN1CC2(C1)CN(c1ccc3c(c1)C(=O)N(C1CCC(=O)NC1=O)C3=O)C2 (stereo not shown) [Compound D206] | < 0.01 µM
COc1cc(-c2cn(C)c(=O)c3cnccc23)cc(OC)c1CN(C)C(=O)CCCCN1CCC2(CC1)CC(Oc1ccc3c(c1)C(=O)N(C1CCC(=O)NC1=O)C3=O)C2 (stereo not shown) [Compound D208] | < 0.01 µM
COc1cc(-c2cn(C)c(=O)c3cnccc23)cc(OC)c1CN1CC(CC(=O)N2CCC3C2CN3c2ccc3c(c2)C(=O)N(C2CCC(=O)NC2=O)C3=O)C1 (stereo not shown) [Compound D210] | 0.01 to 0.1 µM
COc1cc(-c2cn(C)c(=O)c3cnccc23)cc(OC)c1CN1CC2(CCN(CCCC#Cc3ccc4c(c3)C(=O)N(C3CCC(=O)NC3=O)C4=O)C2)C1 (stereo not shown) [Compound D211] | < 0.01 µM
COc1cc(-c2cn(C)c(=O)c3cnccc23)cc(OC)c1CN1CCC2(CC1)CCN(CCCC#Cc1ccc3c(c1)C(=O)N(C1CCC(=O)NC1=O)C3=O)C2 (stereo not shown) [Compound D213] | < 0.01 µM
COc1cc(-c2cn(C)c(=O)c3cnccc23)cc(OC)c1CN1CCN(CCCC#Cc2ccc3c(c2)C(=O)N(C2CCC(=O)NC2=O)C3=O)CC1 (stereo not shown) [Compound D214] | < 0.01 µM
COc1cc(-c2cn(C)c(=O)c3cnccc23)cc(OC)c1CN1CCN(C(=O)C#Cc2ccc3c(c2)C(=O)N(C2CCC(=O)NC2=O)C3=O)CC1 (stereo not shown) [Compound D216] | < 0.01 µM
COc1cc(-c2cn(C)c(=O)c3cnccc23)cc(OC)c1CN1CC2(CCN(C(=O)CCC#Cc3ccc4c(c3)C(=O)N(C3CCC(=O)NC3=O)C4=O)C2)C1 (stereo not shown) [Compound D218] | < 0.01 µM
COc1cc(-c2cn(C)c(=O)c3cnccc23)cc(OC)c1CN1CC2(CCN(C(=O)CCC#Cc3ccc4c(c3)C(=O)N(C3CCC(=O)NC3=O)C4=O)CC2)C1 (stereo not shown) [Compound D219] | < 0.01 µM
COc1cc(-c2cn(C)c(=O)c3cnccc23)cc(OC)c1CN(C)CCCCN1CCC2(CC1)CN(c1ccc3c(c1)C(=O)N(C1CCC(=O)NC1=O)C3=O)C2 (stereo not shown) [Compound D222] | < 0.01 µM
COc1cc(-c2cn(C)c(=O)c3cnccc23)cc(OC)c1CN(C)CCCCN1CCC2(CC1)CCN(c1ccc3c(c1)C(=O)N(C1CCC(=O)NC1=O)C3=O)C2 (stereo not shown) [Compound D224] | < 0.01 µM
COc1cc(-c2cn(C)c(=O)c3cnccc23)cc(OC)c1CN(C)CCCCN1CCC2(CCN(c3ccc4c(c3)C(=O)N(C3CCC(=O)NC3=O)C4=O)C2)C1 (stereo not shown) [Compound D225] | < 0.01 µM
COc1cc(-c2cn(C)c(=O)c3cnccc23)cc(OC)c1CN(C)CCCCN1CCC2(C1)CN(c1ccc3c(c1)C(=O)N(C1CCC(=O)NC1=O)C3=O)C2 (stereo not shown) [Compound D226] | < 0.01 µM
COc1cc(-c2cn(C)c(=O)c3cnccc23)cc(OC)c1CN(C)CCCCN1CCC2C1CN2c1ccc2c(c1)C(=O)N(C1CCC(=O)NC1=O)C2=O (stereo not shown) [Compound D227] | < 0.01 µM
COc1cc(-c2cn(C)c(=O)c3cnccc23)cc(OC)c1CN(C)CCCCN1CCC2(CC1)CC(Oc1ccc3c(c1)C(=O)N(C1CCC(=O)NC1=O)C3=O)C2 (stereo not shown) [Compound D228] | < 0.01 µM
COc1cc(-c2cn(C)c(=O)c3cnccc23)cc(OC)c1CN1CC(CC(=O)N[C@@H]2C[C@@]23CCN(c2ccc4c(c2)C(=O)N(C2CCC(=O)NC2=O)C4=O)C3)C1 (stereo partly shown) [Compound D232] | 0.01 to 0.1 µM
COc1cc(-c2cn(C)c(=O)c3cnccc23)cc(OC)c1CN1CC(CC(=O)N2CC(Oc3ccc4c(c3)C(=O)N(C3CCC(=O)NC3=O)C4=O)C2)C1 (stereo not shown) [Compound D233] | 0.1 to 1 µM
COc1cc(-c2cn(C)c(=O)c3cnccc23)cc(OC)c1CN1CC(CC(=O)N2CC3(CC(Oc4ccc5c(c4)C(=O)N(C4CCC(=O)NC4=O)C5=O)C3)C2)C1 (stereo not shown) [Compound D234] | 0.01 to 0.1 µM
COc1cc(-c2cn(C)c(=O)c3cnccc23)cc(OC)c1CN1CCC2C(C1)CN2CC#Cc1ccc2c(c1)C(=O)N(C1CCC(=O)NC1=O)C2=O (stereo not shown) [Compound D236] | < 0.01 µM
COc1cc(-c2cn(C)c(=O)c3cnccc23)cc(OC)c1CN1CCN(CC#Cc2ccc3c(c2)C(=O)N(C2CCC(=O)NC2=O)C3=O)CC1 (stereo not shown) [Compound D237] | < 0.01 µM
COc1cc(-c2cn(C)c(=O)c3cnccc23)cc(OC)c1CN1CCC2(C1)CN(CCCC#Cc1ccc3c(c1)C(=O)N(C1CCC(=O)NC1=O)C3=O)C2 (stereo not shown) [Compound D238] | < 0.01 µM
COc1cc(-c2cn(C)c(=O)c3cnccc23)cc(OC)c1CN1CC2(CCN(C(=O)C#Cc3ccc4c(c3)C(=O)N(C3CCC(=O)NC3=O)C4=O)C2)C1 (stereo not shown) [Compound D239] | < 0.01 µM
COc1cc(-c2cn(C)c(=O)c3cnccc23)cc(OC)c1CN1CCC2(CC1)CCN(C(=O)C#Cc1ccc3c(c1)C(=O)N(C1CCC(=O)NC1=O)C3=O)C2 (stereo not shown) [Compound D240] | < 0.01 µM

The next lines start with the values.

DC50 | SMILES
< 0.01 µM | COc1cc(-c2cn(C)c(=O)c3cnccc23)cc(OC)c1CN(C)C(=O)CCCCNC1CC2(C1)CN(c1ccc3c(c1)C(=O)N(C1CCC(=O)NC1=O)C3=O)C2 (stereo not shown) [Compound D204]
< 0.01 µM | COc1cc(-c2cn(C)c(=O)c3cnccc23)cc(OC)c1CN(C)C(=O)CCCCN1CC2(CCC(Oc3ccc4c(c3)C(=O)N(C3CCC(=O)NC3=O)C4=O)C2)C1 (stereo not shown) [Compound D207]
0.1 to 1 µM | COc1cc(-c2cn(C)c(=O)c3cnccc23)cc(OC)c1CN1CC(CC(=O)NC2CCC23CN(c2ccc4c(c2)C(=O)N(C2CCC(=O)NC2=O)C4=O)C3)C1 (stereo not shown) [Compound D209]
0.01 to 0.1 µM | COc1cc(-c2cn(C)c(=O)c3cnccc23)cc(OC)c1CN1CC2(CCN(CCCC#Cc3ccc4c(c3)C(=O)N(C3CCC(=O)NC3=O)C4=O)CC2)C1 (stereo not shown) [Compound D212]
< 0.01 µM | COc1cc(-c2cn(C)c(=O)c3cnccc23)cc(OC)c1CN1CC2(CN(CCCC#Cc3ccc4c(c3)C(=O)N(C3CCC(=O)NC3=O)C4=O)C2)C1 (stereo not shown) [Compound D215]
< 0.01 µM | COc1cc(-c2cn(C)c(=O)c3cnccc23)cc(OC)c1CN1CCC2(CC1)CN(C(=O)CCC#Cc1ccc3c(c1)C(=O)N(C1CCC(=O)NC1=O)C3=O)C2 (stereo not shown) [Compound D217]
< 0.01 µM | COc1cc(-c2cn(C)c(=O)c3cnccc23)cc(OC)c1CN1CCC2(CCC(C(=O)CCC#Cc3ccc4c(c3)C(=O)N(C3CCC(=O)NC3=O)C4=O)C2)CC1 (stereo not shown) [Compound D220]
< 0.01 µM | COc1cc(-c2cn(C)c(=O)c3cnccc23)cc(OC)c1CN1CCC(C(=O)N2CCC3(CC2)CC(Oc2ccc4c(c2)C(=O)N(C2CCC(=O)NC2=O)C4=O)C3)CC1 (stereo not shown) [Compound D221]
< 0.01 µM | COc1cc(-c2cn(C)c(=O)c3cnccc23)cc(OC)c1CN(C)CCCCN1CC2(CCN(c3ccc4c(c3)C(=O)N(C3CCC(=O)NC3=O)C4=O)CC2)C1 (stereo not shown) [Compound D223]
< 0.01 µM | COc1cc(-c2cn(C)c(=O)c3cnccc23)cc(OC)c1CN(C)C(=O)CCCCN1CC(Oc2ccc3c(c2)C(=O)N(C2CCC(=O)NC2=O)C3=O)C1 (stereo not shown) [Compound D229]
< 0.01 µM | COc1cc(-c2cn(C)c(=O)c3cnccc23)cc(OC)c1CN(C)C(=O)CCCCN1CC2(CC(Oc3ccc4c(c3)C(=O)N(C3CCC(=O)NC3=O)C4=O)C2)C1 (stereo not shown) [Compound D230]
0.1 to 1 µM | COc1cc(-c2cn(C)c(=O)c3cnccc23)cc(OC)c1CN1CC(CC(=O)N[C@@H]2C[C@]23CCN(c2ccc4c(c2)C(=O)N(C2CCC(=O)NC2=O)C4=O)C3)C1 (stereo partly shown) [Compound D231]
< 0.01 µM | COc1cc(-c2cn(C)c(=O)c3cnccc23)cc(OC)c1CN1CCC2(CC1)CN(CC#Cc1ccc3c(c1)C(=O)N(C1CCC(=O)NC1=O)C3=O)C2 (stereo not shown) [Compound D235]
